In patent US10053455B2, “Diazaspiroalkaneone-substituted oxazole derivatives as spleen tyrosine kinase inhibitors” (AB SCIENCE, priority 2014, dated 2018):
pIC50: −log10 of the molar value.

What was measured:
[1] = molecular target: KIT D816V (Homo sapiens (Human), UniProt P10721, D816V); test: Cell-based proliferation assay on BaF3 model, KIT D816V
Protocol: Cell-based proliferation and viability assay CellTiter-Bleue cell-based survival/proliferation assay (Promega G8080) was performed on BaF3 models.
(§1) A total of 1.10^4 cells/well/50 μl were seeded in a 96-wells plate. Treatment was initiated by addition of a 2× drug solution of ½ serial dilutions ranging from 0 to 10 μM. Cells were grown for 48-72 h at 37° C. and then incubated with 10 μl/well of Promega CellTiter-Bleue reagent for 4 h at 37° C. The amount of formazan dye formed was quantified by its absorbance at 450 nm using a scanning multiwell spectrophotometer (POLARstar Omega, BMG labtech, France). A blank well without cells was used as a background control for the spectrophotometer and all assays were performed in duplicates and the experiments were repeated at least twice.

[2] = molecular target: VEGFR1 (Homo sapiens (Human), UniProt P17948); test: HTRF kinase assay, VEGFR1; type: biochemical; conditions: enzymatic determination
Chain of VEGFR1 (P17948 27-1338, species assumed): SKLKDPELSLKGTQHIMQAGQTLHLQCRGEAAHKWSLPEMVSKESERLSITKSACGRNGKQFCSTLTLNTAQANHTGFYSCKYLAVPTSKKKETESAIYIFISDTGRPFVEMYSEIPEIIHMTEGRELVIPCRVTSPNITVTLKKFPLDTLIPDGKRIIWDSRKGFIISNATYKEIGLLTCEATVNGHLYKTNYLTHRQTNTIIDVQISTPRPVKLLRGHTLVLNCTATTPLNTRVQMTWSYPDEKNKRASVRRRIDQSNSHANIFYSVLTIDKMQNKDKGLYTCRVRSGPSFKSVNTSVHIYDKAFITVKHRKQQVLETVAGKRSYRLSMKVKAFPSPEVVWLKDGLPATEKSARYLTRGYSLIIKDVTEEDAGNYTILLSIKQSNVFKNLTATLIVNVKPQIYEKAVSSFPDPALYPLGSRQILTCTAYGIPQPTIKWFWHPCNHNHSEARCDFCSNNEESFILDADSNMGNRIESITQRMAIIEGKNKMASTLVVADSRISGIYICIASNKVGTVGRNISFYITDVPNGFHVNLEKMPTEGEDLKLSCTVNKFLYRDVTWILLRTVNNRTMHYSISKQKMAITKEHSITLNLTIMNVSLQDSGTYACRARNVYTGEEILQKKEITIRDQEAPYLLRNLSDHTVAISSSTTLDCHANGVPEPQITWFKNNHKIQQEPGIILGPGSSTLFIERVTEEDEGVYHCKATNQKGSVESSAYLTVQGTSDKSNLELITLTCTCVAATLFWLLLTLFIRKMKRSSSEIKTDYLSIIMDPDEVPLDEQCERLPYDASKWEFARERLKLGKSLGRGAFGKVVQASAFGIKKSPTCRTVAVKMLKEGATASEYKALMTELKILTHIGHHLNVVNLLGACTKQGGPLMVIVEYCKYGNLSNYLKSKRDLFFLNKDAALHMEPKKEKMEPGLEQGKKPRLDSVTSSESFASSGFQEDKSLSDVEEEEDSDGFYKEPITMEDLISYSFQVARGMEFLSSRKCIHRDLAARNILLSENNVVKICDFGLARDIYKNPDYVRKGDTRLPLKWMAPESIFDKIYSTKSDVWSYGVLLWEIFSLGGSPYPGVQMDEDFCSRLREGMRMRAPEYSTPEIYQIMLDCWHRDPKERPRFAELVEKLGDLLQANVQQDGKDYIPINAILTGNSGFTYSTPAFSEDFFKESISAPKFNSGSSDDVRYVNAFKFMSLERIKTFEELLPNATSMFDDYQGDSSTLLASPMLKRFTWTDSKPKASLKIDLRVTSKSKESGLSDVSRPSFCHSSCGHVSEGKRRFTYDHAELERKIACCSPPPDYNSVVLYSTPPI
Protocol: (§2) Most of the kinases tested in this study were cloned, expressed and purified in the facilities of the inventors. They were expressed either as N-terminus hexahistidine-, hexahistidine-asparagine- or GST-tagged enzymes in a baculovirus or in a Colibacille expression system. Remaining enzymes (JAKs) were purchased from Millipore or Proqinase. For each enzyme, steady state kinetic parameters were determined and validated with known inhibitors.
(§3) The analysis of the effect of compounds on kinase activity was assessed with the HTRF® KinEASE assay (Cisbio International), an immuno-assay based on the quantification of the level of phosphorylation of a biotinylated peptide substrate using anti-phospho-specific antibody labeled with Europium (Eu^3+) cryptate. This assay comprises two steps: —an enzymatic step, during which the peptide substrate, the kinase, ATP, Mg^2+ and/or Mn^2+ are incubated with varying concentration of drug (from 0 to 10 μM); —a detection step, at the end of the reaction (stopped by addition of EDTA which chelates Mg^2+), the antibody anti-phospho peptide-Eu^3+ (emission 620 nm) and streptavidin XL-665 (emission 665 nm) are added to the reaction mix. […] Results are expressed in delta fluorescence (DF) unit defined as follow DF %=[(ratio−ratio blank)/(ratio blank)]*100, where ratio=(665 nm/620 nm)*10^4. […]

[3] = molecular target: VEGFR2 (Homo sapiens (Human), UniProt P35968); test: HTRF kinase assay, VEGFR2; type: biochemical; conditions: enzymatic determination
Chain of VEGFR2 (P35968 20-1356, species assumed): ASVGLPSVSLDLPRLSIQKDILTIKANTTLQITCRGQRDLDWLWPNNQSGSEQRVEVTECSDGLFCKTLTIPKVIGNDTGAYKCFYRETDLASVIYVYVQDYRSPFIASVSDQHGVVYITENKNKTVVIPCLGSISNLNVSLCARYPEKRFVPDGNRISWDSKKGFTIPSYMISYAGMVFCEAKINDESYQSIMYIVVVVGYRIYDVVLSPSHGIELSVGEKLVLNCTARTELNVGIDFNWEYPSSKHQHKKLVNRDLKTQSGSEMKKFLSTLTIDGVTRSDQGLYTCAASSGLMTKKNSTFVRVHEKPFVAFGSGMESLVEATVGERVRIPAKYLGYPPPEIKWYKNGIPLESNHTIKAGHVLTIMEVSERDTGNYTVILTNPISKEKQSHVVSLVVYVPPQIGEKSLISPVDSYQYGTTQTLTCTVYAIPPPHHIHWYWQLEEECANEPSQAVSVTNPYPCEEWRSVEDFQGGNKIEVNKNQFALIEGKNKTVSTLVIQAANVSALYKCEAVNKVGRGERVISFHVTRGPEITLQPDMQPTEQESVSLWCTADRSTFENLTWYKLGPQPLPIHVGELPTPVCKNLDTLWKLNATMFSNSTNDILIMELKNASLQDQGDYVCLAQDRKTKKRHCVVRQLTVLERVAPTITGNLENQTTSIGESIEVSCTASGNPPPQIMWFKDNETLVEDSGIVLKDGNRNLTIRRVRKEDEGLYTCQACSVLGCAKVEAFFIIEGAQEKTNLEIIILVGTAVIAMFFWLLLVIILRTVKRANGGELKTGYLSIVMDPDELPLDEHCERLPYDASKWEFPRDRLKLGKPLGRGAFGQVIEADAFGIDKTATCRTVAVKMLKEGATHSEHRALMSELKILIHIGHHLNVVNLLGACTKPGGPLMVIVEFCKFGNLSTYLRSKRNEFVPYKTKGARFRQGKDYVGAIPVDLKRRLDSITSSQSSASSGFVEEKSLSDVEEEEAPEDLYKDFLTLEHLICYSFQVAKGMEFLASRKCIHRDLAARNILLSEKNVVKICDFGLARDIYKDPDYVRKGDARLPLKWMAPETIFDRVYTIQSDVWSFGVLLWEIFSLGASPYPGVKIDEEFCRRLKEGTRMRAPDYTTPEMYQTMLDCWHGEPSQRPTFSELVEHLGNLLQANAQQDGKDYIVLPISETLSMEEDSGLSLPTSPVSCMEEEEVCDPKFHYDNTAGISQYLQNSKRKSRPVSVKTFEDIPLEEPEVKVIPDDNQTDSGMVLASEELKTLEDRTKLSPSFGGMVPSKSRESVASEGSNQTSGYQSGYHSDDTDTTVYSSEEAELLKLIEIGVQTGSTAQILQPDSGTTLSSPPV
Protocol: as §2, §3

[4] = molecular target: BCR-ABL (Homo sapiens, UniProt P00519); test: Cell-based proliferation assay on BaF3 model, BCR-ABL
Chain of BCR-ABL (P00519 whole entry, looked up, stated change not applied): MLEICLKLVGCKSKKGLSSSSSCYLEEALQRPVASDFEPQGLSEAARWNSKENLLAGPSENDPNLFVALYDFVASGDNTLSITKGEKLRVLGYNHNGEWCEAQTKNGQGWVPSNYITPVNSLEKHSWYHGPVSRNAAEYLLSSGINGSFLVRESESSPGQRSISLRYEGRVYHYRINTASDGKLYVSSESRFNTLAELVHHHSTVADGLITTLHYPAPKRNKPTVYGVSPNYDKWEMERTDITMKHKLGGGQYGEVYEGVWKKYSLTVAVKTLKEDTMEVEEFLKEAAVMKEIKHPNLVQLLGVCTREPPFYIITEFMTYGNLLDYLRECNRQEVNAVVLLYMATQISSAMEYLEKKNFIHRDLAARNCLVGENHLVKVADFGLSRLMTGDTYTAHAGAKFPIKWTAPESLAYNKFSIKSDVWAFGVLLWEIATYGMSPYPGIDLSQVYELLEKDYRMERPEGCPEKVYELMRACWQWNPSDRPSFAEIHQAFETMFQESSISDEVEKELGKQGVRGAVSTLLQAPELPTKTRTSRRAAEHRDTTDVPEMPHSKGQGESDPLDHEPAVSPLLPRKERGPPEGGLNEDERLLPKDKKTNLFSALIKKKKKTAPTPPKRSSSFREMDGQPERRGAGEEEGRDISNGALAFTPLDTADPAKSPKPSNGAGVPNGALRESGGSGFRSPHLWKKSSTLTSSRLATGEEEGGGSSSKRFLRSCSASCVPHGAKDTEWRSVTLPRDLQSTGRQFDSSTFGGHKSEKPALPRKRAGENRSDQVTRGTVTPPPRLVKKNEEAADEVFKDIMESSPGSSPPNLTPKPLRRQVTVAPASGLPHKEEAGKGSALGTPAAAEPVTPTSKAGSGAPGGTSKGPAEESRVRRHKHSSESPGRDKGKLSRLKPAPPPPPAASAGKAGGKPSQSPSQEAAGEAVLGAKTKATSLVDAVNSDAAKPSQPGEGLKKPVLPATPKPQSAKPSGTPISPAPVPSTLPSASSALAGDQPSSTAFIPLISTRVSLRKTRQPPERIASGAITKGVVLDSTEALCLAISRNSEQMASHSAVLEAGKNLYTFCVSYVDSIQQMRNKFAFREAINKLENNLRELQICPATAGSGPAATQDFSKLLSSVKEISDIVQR
Protocol: as §1, with “Cell-based proliferation and viability assay CellTiter-Bleue cell-based survival/proliferation assay (Promega G8080)” for “A total of 1.10^4 cells/well/50 μl were seeded in a 96-wells plate. Treatment”, “performed on BaF3 models. […]” for “initiated by addition of a 2× drug solution of ½ serial dilutions ranging from 0 to 10 μM.”

[5] = test system: rat neonatal cardiac myocytes; test: Intracellular ROS in rat cardiomyocytes (CM-H2DCFDA); type: cell-based; conditions: 10 μM, 8 hours
Protocol: 2×10^3 human cardiomyocytes (Promocell C-12810) or 4×10^4 rat neonatal cardiac myocytes (R-CM-561 Lonza) were seeded per well of a 96-well plate (black wall for fluorimetry usage (655090 Greiner Bio one)) 24 hours before drug treatment. Treatment was initiated by addition of a drug solution for a 10 μM final concentration. Doxorubicin was used at 5 μM as positive control for the induction of ROS. After 8 hours treatment with drugs, cells were loaded with 10 μM of CM-H2DCFDA (C6827 Invitrogen) for 1 hour, followed by 2 washes in PBS. CM-H2DCFDA is a membrane permeable reagent that can be enzymatically converted to dichlorodihydrofluorescein (DCF) in the presence of ROS. Fluorescent DCF was detected using a fluorescence spectrophotometer (BMG Labtech) with excitation of 485 nm and emission of 560 nm. The results were expressed as a relative percent of DCF-fluorescence in control cells.
Monitoring drug-induced increase in the production of reactive oxygen species (ROS) in cardiomyocyte may be important to predict the cardiotoxic side effects of a drug (Table 11). The production of ROS in human and rat cardiomyocytes was studied following 8 hours drug treatment at concentration of 10 μM. The results were expressed as a percent relative to the production of ROS induced by the cardiotoxic chemotherapeutic agent doxorubicin (100%).

[6] = test system: HepG2 tumor cell line; test: Mitochondrial ToxGlo assay (ATP production and cytotoxicity); type: cell-based; conditions: HepG2, 20 μM, 2 hours
Protocol: Drug-induced mitochondrial toxicity was evaluated by monitoring oxygen consumption using a Clark oxygen electrode on mitochondria isolated from heart of healthy mouse (Mitologics S.A.S, France). Briefly, isolated mitochondria are placed at 37° C. in a sealed chamber that is exposed to the surface of a Clark oxygen electrode. The presence of oxygen caused the electrode to deliver a current to the oxygen monitor, which amplified the current and converted it to a voltage output that was directly proportional to the concentration of oxygen in the chamber. Drug-induced mitochondrial toxicity was also evaluated by monitoring mitochondrial ATP production using a cell-based assay (Mitochondrial ToxGlo™ assay, Promega Corporation (cat#G8000)). […] The test was performed on HepG2 tumor cell line grown in galactose medium in order to force the cancer cells to produce ATP via oxidative phosphorylation (crabtree effect). Cells were treated for 2 hours with 20 μM drug before analysis of ATP detection (Luminescent signal) and cytotoxicity (Fluorescent signal) as described by manufacturers using PHERAstar and POLARstar OMEGA microplate readers respectively (BMG Labteck Sari).

[7] = test system: Salmonella typhimurium strain TA100
Protocol: Mutagenic activity of test compounds and their metabolites (produced by rat liver S9 fraction) was evaluated in the Salmonella typhimurium strains TA100 and TA98 according to the Ames assay (Toxicology in vitro, (2001), 15: 105-114). […] The results are expressed as a mutagenicity ratio in comparison to solvent controls.
The results are expressed as a ratio of the number of colonies over the number of colonies in the negative control (DMSO).

Chain of KIT D816V (P10721 26-976 D816V): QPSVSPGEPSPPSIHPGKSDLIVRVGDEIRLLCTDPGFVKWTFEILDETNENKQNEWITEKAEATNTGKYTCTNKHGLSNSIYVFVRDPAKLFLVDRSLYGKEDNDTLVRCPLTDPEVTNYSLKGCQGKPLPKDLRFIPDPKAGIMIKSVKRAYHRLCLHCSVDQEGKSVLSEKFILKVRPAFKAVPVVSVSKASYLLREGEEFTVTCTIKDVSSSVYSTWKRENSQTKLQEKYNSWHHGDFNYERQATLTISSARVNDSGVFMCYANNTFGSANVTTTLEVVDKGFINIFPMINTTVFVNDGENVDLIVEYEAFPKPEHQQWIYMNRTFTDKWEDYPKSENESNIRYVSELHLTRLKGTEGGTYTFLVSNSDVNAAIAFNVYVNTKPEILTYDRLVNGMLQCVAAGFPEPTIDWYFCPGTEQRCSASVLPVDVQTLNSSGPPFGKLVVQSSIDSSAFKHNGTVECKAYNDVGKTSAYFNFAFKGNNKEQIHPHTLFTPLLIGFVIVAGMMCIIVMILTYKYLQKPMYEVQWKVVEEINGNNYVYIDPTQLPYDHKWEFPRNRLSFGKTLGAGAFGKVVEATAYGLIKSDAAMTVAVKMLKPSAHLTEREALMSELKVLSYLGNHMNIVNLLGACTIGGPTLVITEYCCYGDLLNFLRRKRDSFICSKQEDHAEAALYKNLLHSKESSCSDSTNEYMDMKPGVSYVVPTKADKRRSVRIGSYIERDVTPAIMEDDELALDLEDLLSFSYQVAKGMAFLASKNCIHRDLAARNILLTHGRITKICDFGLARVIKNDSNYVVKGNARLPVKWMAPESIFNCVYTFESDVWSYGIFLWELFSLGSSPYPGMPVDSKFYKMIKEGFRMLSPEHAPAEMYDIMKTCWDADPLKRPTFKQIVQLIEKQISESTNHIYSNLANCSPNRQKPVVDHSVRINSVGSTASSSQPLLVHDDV

Cc1ccnc(Nc2cccc(-c3cnc(N4CCNC(=O)C45CC5)o3)c2)n1 [Compound 001, 4-{5-[3-(4-Methyl-pyrimidin-2-ylamino)-phenyl]-oxazol-2-yl}-4,7-diaza-spiro[2.5]octan-8-one]
pIC50 [1]: 5.00
pIC50 [2]: 5.12
pIC50 [3]: 4.70
pIC50 [4]: 5.00
ROS production, activity relative to doxorubicine (100%), Rat-CM [5]: 0%
ATP production relative to DMSO (100%) Mito ToxGlo [6]: 104%
Cytotoxicity relative to DMSO (0%) Mito ToxGlo [6]: 11%
ATP production relative to DMSO (100%) Mito ToxGlo ([6]; listed as compound 001): 104%
Cytotoxicity relative to DMSO (0%) Mito ToxGlo ([6]; listed as compound 001): 11%
mutagenic activity [7]: did not show any mutagenic activity
